Measured values from article PMC5903475, “Food-Derived Hemorphins Cross Intestinal and Blood–Brain Barriers In Vitro” (Frontiers in Endocrinology, 2018).
Where a SMILES comes first, the peptide text is derived from it. Where no end group is shown, it is not given here.

Tests used:
[1] = test system: Caco-2/TC7 cell barrier (human intestinal barrier model); conditions: for Time of first appearance of the intact peptide in the basal compartment / Passage of the intact peptide across the Caco-2 monolayer: 5 mM apical; for Passage of the intact peptide across the Caco-2 monolayer: basal samples 5-120 min, MRM; for Intact peptide or fragments present in the apical compartment, intestinal barrier / Intact peptide or fragments present in the basal compartment, intestinal barrier: peptide applied apically at 5 mM, end of the 120 min passage test, LC-MS/MS
Description: For the experiment, they were seeded at the density of 60 × 10^3 cells cm^−2 into cell culture inserts in 6-well culture plates and grown for 21 days.
The day of the trans-intestinal transport test, growth media were removed, and cells were first rinsed with the transport medium, HBSS-Hepes buffer supplemented with CaCl2 (2.5 mM final) and MgCl2 (0.5 mM final) in the apical (1 mL) and basolateral chambers (2.5 mL), then pre-incubated for 30 min with the transport medium. All incubations were performed at 37°C, 10% CO2 atmosphere. To control the integrity of the Caco-2/TC7 cell barrier, the paracellular transport marker lucifer yellow (LY, 100 µM final) was applied apically into each well and its transport into the basolateral chamber was monitored by spectrofluorescence. Each hemorphin was diluted for a final concentration of 5 mM in transport medium-LY and applied to the apical chamber at t0. In parallel, control wells were incubated with transport medium-LY only and all conditions were tested in triplicate. At t5, 15, 30, and 60 min, 100 µL samples were collected in the basal chamber and replaced by the same volume of transport medium. At t120 min, all remaining media in basal and apical chambers were collected and all samples were stored at −80°C. The rate of LY transport was determined by fluorescence readings (ex 485/em 530 nm) at each time point on the spectrofluorometer Safas Xenius XC (Safas Monaco, Monaco, France) and calculating the apparent permeability coefficient (Papp) as follows: (ΔQ/Δt) × (Vb/(A × C0)), where ΔQ is the change in LY concentration in the basal chamber (μM); Δt is the transport duration (s); Vb is the volume in the basal chamber (mL); A is the surface area of the insert/transwell membrane (cm^2); and C0 is the initial concentration of LY applied to the apical chamber (μM).
LC-MS/MS analysis was performed on a UFLC-XR device (Shimadzu, Kyoto, Japan) coupled to a QTRAP® 5500 MS/MS hybrid system triple quadrupole/linear ion trap mass spectrometer (AB Sciex, Foster City, CA, USA) equipped with a Turbo VTM ion source. Instrument control, data acquisition, and processing were performed using Analyst 1.5.2 software. The reverse phase liquid chromatography separation was carried out on a Kromasil C18 column (100 × 2.1 mm, 3.5 µm) with guard cartridge from AIT-France (Houilles, France). The injection volume was 2 µL. Elution was performed at a flow rate of 200 µL min^−1 with water-formic acid 0.1% as eluent A and acetonitrile-formic acid 0.1% as eluent B. The injection duty cycle was 10 min, starting with a 1 min plateau with 25% B, followed by a linear gradient from 25 B to 60% B in 4 min, a 1 min plateau with 60% B, 1 min linear gradient from 60 to 25% B, and 3 min at 25% B to recondition the column. MS analysis was carried out in positive ionization mode. The ion source parameters were optimized and set as follows: ion spray voltage, 5,500 V; nebulizer gas (air) and curtain gas (nitrogen) flows, 50 and 25 psi, respectively; source temperature, 550°C with the auxiliary gas flow (air) set at 50 psi; declustering potential (DP), 100 V; and collision cell exit potential, 25 V. The mass spectrometer was operated at a unit resolution for both Q1 and Q3 with a dwell time of 90 ms in each transition.
The presence of each intact hemorphin and potential fragments were tracked by a combination of multiple reaction monitoring (MRM) and pseudo-MRM transitions.

[2] = test system: brain-like endothelial cells (BLEC) co-cultured with bovine brain pericytes (human BBB model); conditions: peptide applied apically at 100 µM; table footnote says end of 120 min test, Figure 4 says 30 min
Description: The brain-like endothelial cell model has previously been described in detail ([28]). All the sample donors had given their written informed consent, in compliance with French legislation and the 2013 version of the Declaration of Helsinki. The sample collection was approved by the local investigational review board (Bethune Maternity Hospital Béthune, France). Briefly, this human model consists in isolating CD34+ cells from umbilical cord blood. These cells are then cultured in endothelial cell medium supplemented with 20% FCS for 15–20 days. After this period, cells are differentiated into endothelial cells. After a trypsinization step, they are seeded on matrigel coated-transwell inserts in 12-well culture plates, and subsequently cultured with brain pericytes, isolated from bovine brain capillaries. After 6 days of co-culture, human endothelial cells acquire the BBB phenotype, and are then named BLECs.
(§1) The day of the transport test, the same procedure as for the intestinal passage assay was applied except that the transwell inserts were transferred to a new 12-well culture plate at each time point, 30, 60, 90, and 120 min. All incubations were performed at 37°C, 5% CO2 atmosphere with slight agitations. The transport medium consisted in Ringer-Hepes solution (150 mM NaCl, 5.2 mM KCl, 2.2 mM CaCl2, 0.2 mM MgCl2⋅6H2O, 6 mM NaHCO3, 5 mM HEPES, pH 7.4). […] A test was performed without cells to insure that the filter membrane was not preventing the passage of the peptides.
The injection volume was 2 µL.

[3] = test system: BLEC blood-brain barrier model; conditions: hemorphin 100 µM apical; Dunnett's post hoc
Description: as §1

[4] = background statement, no reference printed for it; cited from earlier work
[5] = test system: caco-2 cell monolayer; design: method as in PMID 18468445; conditions: cited from earlier work
[6] = test system: blood-brain barrier; conditions: 125I-H7; rats; cited from earlier work
[7] = physchem; conditions: pH 7.4
[8] = test system: Caco-2/TC7 cell barrier; conditions: LY 100 µM with hemorphin 5 mM apical
Description: The day of the trans-intestinal transport test, growth media were removed, and cells were first rinsed with the transport medium, HBSS-Hepes buffer supplemented with CaCl2 (2.5 mM final) and MgCl2 (0.5 mM final) in the apical (1 mL) and basolateral chambers (2.5 mL), then pre-incubated for 30 min with the transport medium. All incubations were performed at 37°C, 10% CO2 atmosphere. To control the integrity of the Caco-2/TC7 cell barrier, the paracellular transport marker lucifer yellow (LY, 100 µM final) was applied apically into each well and its transport into the basolateral chamber was monitored by spectrofluorescence. Each hemorphin was diluted for a final concentration of 5 mM in transport medium-LY and applied to the apical chamber at t0. […] The rate of LY transport was determined by fluorescence readings (ex 485/em 530 nm) at each time point on the spectrofluorometer Safas Xenius XC (Safas Monaco, Monaco, France) and calculating the apparent permeability coefficient (Papp) as follows: (ΔQ/Δt) × (Vb/(A × C0)), where ΔQ is the change in LY concentration in the basal chamber (μM); Δt is the transport duration (s); Vb is the volume in the basal chamber (mL); A is the surface area of the insert/transwell membrane (cm^2); and C0 is the initial concentration of LY applied to the apical chamber (μM).

[9] = test system: FK-induced intracellular cAMP in Caco-2 cells; test: cAMP determination assay in forskolin-stimulated Caco-2 cells; type: cell-based, human; conditions: 1 µM alone, 15 min
Description: For the cAMP determination assay and the gene expression study, the cell line used was the Caco-2 cell line purchased from Sigma-Aldrich (Steinheim, Germany). Cells were grown at 37°C, 5% CO2 atmosphere in Dulbecco’s modified Eagle’s Medium (DMEM, 4.5 g L^−1 glucose) supplemented with 10% FBS, 2 mM L-glutamine, 100 U mL^−1 penicillin, and 100 µg mL^−1 streptomycin (complete DMEM) until use. Caco-2 from passages 34–37 were used. For the transport studies, the cell lines used and the culture protocols conditions are described in detail in dedicated subsections below.
The effect of the five opioid peptides/hemorphins on the cAMP production was assessed in vitro in Caco-2 cells. Each hemorphin was applied on Caco-2 cells stimulated or not by FK, an activator of the cAMP pathway, in order to evaluate the ability of the peptides to decrease intracellular cAMP elevation induced by FK. […] At the end of the 15 min incubation, cells were immediately rinsed three times with PBS and plates were stored at −80°C until intracellular cAMP levels determination with the Mouse/Rat cAMP Parameter Assay Kit according to the manufacturer’s guidelines. cAMP levels were normalized by the total protein concentration determined by the Pierce BCA Protein Assay Kit for each sample and expressed as a percentage of the reference condition FK only.

[10] = test system: mu- and kappa-transfected CHO-cells; design: method as in Fukuda et al. 45; conditions: ref Fukuda et al. 45; cited from earlier work

Row | Compound | Time of first appearance of the intact peptide in the basal compartment ([1]; Caco-2 model) [min] | Passage of the intact peptide across the Caco-2 monolayer [1] | Intact peptide or fragments present in the apical compartment, intestinal barrier [1] | Intact peptide or fragments present in the basal compartment, intestinal barrier [1] | Intact peptide or fragments present in the basal compartment, BBB [2] | also measured
1 | VVYPWT [VV-H4, VV-YPWT] | 60 | clearly able to cross intact the cell monolayer | VV-H4, H4 | H4, VV-H4 | H4, VV-H4 | Papp(LY) compared to control, BBB model [3]: 142.2 ± 26.71%
2 | C[C@@H](O)[C@H](NC(=O)[C@H](Cc1c[nH]c2ccccc12)NC(=O)[C@@H]1CCCN1C(=O)[C@@H](N)Cc1ccc(O)cc1)C(=O)O [H4, YPWT] (H-YPWT-OH) | – | – | – | – | – | Time of first identification of the fragment in basal samples ([1]; fragment released from hemorphins applied at 5 mM, Caco-2 model): 5 min; Stability in plasma [4]: very stable in plasma
3 | endomorphine-1 | – | – | – | – | – | Permeability through a caco-2 cell monolayer [5]: low permeability
4 | YPWTQRF [H7, YPWTQRF] | 5 | clearly able to cross intact the cell monolayer | – | – | – | Time to BBB passage after intra-femoral artery injection [6]: ≤ 15 min
5 | LLVVYPWT [LLVV-H4, LLVV-YPWT] | – | not detected | – | – | H4, VV-H4, LVV-H4, LLVV-H4 | solubility [7]: > 50 µM; Papp(LY) compared to control, BBB model [3]: 133.2 ± 16.44%; Papp(LY) compared to control, intestinal barrier model [8]: decreased compared to control (non-significant)
6 | LVVYPWT [LVV-H4, LVV-YPWT] | 60 | clearly able to cross intact the cell monolayer | LVV-H4, VV-H4, H4 | H4, VV-H4, LVV-H4 | H4, VV-H4, LVV-H4 | –
7 | C=CCN1CC[C@]23c4c5ccc(O)c4O[C@H]2C(=O)CC[C@@]3(O)[C@H]1C5 [naloxone] | – | – | – | – | – | Intracellular cAMP, % of FK levels [9]: 68.42 ± 6.87%; Activity at opioid receptors in transfected CHO-cells [10]: partial agonist activity
8 | VVYPWTQRF [VV-H7, VV-YPWTQRF] | – | found in traces | VV-H7, VV-H4, H7, H6 | H4, VV-H7, H7, H3 | H4, VV-H7, VV-H4, H7, H3, H5 | Papp(LY) compared to control, intestinal barrier model [8]: decreased compared to control (non-significant)
